Measurements taken from the supplement of paper PMC10307832.

Legend:
Experiment in all cases: relative viability (nuclei count vs DMSO), 5 days (fraction); higher = more cells survive
NCI-H2085 = test system: NCI-H2085
Procedure, shortened: (§1)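 The day after seeding in 1536-well plates, lung cancer cell lines were treated by pin tool with a single drug, or with a fixed anchor-drug dose together with five library-drug doses (not always all listed) in √10 steps. After 5 days, a combined fix-and-stain solution (final 0.05% Triton X-100, 1% formaldehyde, 1 ug/ml Hoechst) was added. Nuclei counted on 4× images gave relative viability as treated counts over vehicle counts, reported as the median of duplicate plates.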

NCI-H2228 = test system: NCI-H2228
Procedure, shortened: as §1

LC-2-ad = test system: LC-2-ad
Procedure, shortened: as §1

UMC-11 = test system: UMC-11
Procedure, shortened: as §1

HCC-366 = test system: HCC-366
Procedure, shortened: as §1

LXF-289 = test system: LXF-289
Procedure, shortened: as §1

HCC-827 = test system: HCC-827
Procedure, shortened: as §1

HCC-15 = test system: HCC-15
Procedure, shortened: as §1

COR-L23 = test system: COR-L23
Procedure, shortened: as §1

NCI-H2009 = test system: NCI-H2009
Procedure, shortened: as §1

SK-MES-1 = test system: SK-MES-1
Procedure, shortened: as §1

NCI-H1666 = test system: NCI-H1666
Procedure, shortened: as §1

NCI-H1975 = test system: NCI-H1975
Procedure, shortened: as §1

NCI-H661 = test system: NCI-H661
Procedure, shortened: as §1

H3255 = test system: H3255
Procedure, shortened: as §1

NCI-H23 = test system: NCI-H23
Procedure, shortened: as §1

NCI-H2087 = test system: NCI-H2087
Procedure, shortened: as §1

PC-14 = test system: PC-14
Procedure, shortened: as §1

NCI-H1437 = test system: NCI-H1437
Procedure, shortened: as §1

PC-3 [JPC-3] = test system: PC-3 [JPC-3]
Procedure, shortened: as §1

LCLC-103H = test system: LCLC-103H
Procedure, shortened: as §1

ABC-1 = test system: ABC-1
Procedure, shortened: as §1

## Cc1csc(=NC2CCCCC2)n1/N=C/c1ccc(O)c(O)c1O [MIM1] + CS(=O)(=O)N1CCN(Cc2cc3nc(-c4cccc5[nH]ncc45)nc(N4CCOCC4)c3s2)CC1 [Pictilisib] (partner 1 µM)
NCI-H2085; first compound 0.2 µM
  relative viability: 0.441
NCI-H2085; first compound 0.6325 µM
  relative viability: 0.431
NCI-H2085; first compound 2 µM
  relative viability: 0.518
NCI-H2085; first compound 6.325 µM
  relative viability: 0.461
NCI-H2085; first compound 20 µM
  relative viability: 0.631
NCI-H2228; first compound 0.2 µM
  relative viability: 0.435
NCI-H2228; first compound 0.6325 µM
  relative viability: 0.316
NCI-H2228; first compound 2 µM
  relative viability: 0.4
NCI-H2228; first compound 6.325 µM
  relative viability: 0.244
NCI-H2228; first compound 20 µM
  relative viability: 0.158
LC-2-ad; first compound 0.2 µM
  relative viability: 0.437
LC-2-ad; first compound 0.6325 µM
  relative viability: 0.373
LC-2-ad; first compound 2 µM
  relative viability: 0.508
LC-2-ad; first compound 6.325 µM
  relative viability: 0.406
LC-2-ad; first compound 20 µM
  relative viability: 0.12
UMC-11; first compound 0.2 µM
  relative viability: 0.753
UMC-11; first compound 0.6325 µM
  relative viability: 0.203
UMC-11; first compound 2 µM
  relative viability: 0.853
UMC-11; first compound 6.325 µM
  relative viability: 0.687
UMC-11; first compound 20 µM
  relative viability: 0.17
HCC-366; first compound 0.2 µM
  relative viability: 0.166
HCC-366; first compound 0.6325 µM
  relative viability: 0.153
HCC-366; first compound 2 µM
  relative viability: 0.122
HCC-366; first compound 6.325 µM
  relative viability: 0.183
HCC-366; first compound 20 µM
  relative viability: 0.0561
LXF-289; first compound 0.2 µM
  relative viability: 0.757
LXF-289; first compound 0.6325 µM
  relative viability: 0.689
LXF-289; first compound 2 µM
  relative viability: 0.823
LXF-289; first compound 6.325 µM
  relative viability: 0.676
LXF-289; first compound 20 µM
  relative viability: 0.522
HCC-827; first compound 0.2 µM
  relative viability: 0.985
HCC-827; first compound 0.6325 µM
  relative viability: 0.936
HCC-827; first compound 2 µM
  relative viability: 0.947
HCC-827; first compound 6.325 µM
  relative viability: 0.618
HCC-827; first compound 20 µM
  relative viability: 0.664
HCC-15; first compound 0.2 µM
  relative viability: 0.872
HCC-15; first compound 0.6325 µM
  relative viability: 0.455
HCC-15; first compound 2 µM
  relative viability: 0.824
HCC-15; first compound 6.325 µM
  relative viability: 0.53
HCC-15; first compound 20 µM
  relative viability: 0.11
COR-L23; first compound 0.2 µM
  relative viability: 0.692
COR-L23; first compound 0.6325 µM
  relative viability: 0.654
COR-L23; first compound 2 µM
  relative viability: 0.844
COR-L23; first compound 6.325 µM
  relative viability: 0.525
COR-L23; first compound 20 µM
  relative viability: 0.217
NCI-H2009; first compound 0.2 µM
  relative viability: 0.931
NCI-H2009; first compound 0.6325 µM
  relative viability: 0.812
NCI-H2009; first compound 2 µM
  relative viability: 0.85
NCI-H2009; first compound 6.325 µM
  relative viability: 0.582
NCI-H2009; first compound 20 µM
  relative viability: 0.173
SK-MES-1; first compound 0.2 µM
  relative viability: 0.358
SK-MES-1; first compound 0.6325 µM
  relative viability: 0.346
SK-MES-1; first compound 2 µM
  relative viability: 0.388
SK-MES-1; first compound 6.325 µM
  relative viability: 0.283
SK-MES-1; first compound 20 µM
  relative viability: 0.252
NCI-H1666; first compound 0.2 µM
  relative viability: 0.605
NCI-H1666; first compound 0.6325 µM
  relative viability: 0.398
NCI-H1666; first compound 2 µM
  relative viability: 0.476
NCI-H1666; first compound 6.325 µM
  relative viability: 0.422
NCI-H1666; first compound 20 µM
  relative viability: 0.311
NCI-H1975; first compound 0.2 µM
  relative viability: 0.275
NCI-H1975; first compound 0.6325 µM
  relative viability: 0.312
NCI-H1975; first compound 2 µM
  relative viability: 0.251
NCI-H1975; first compound 6.325 µM
  relative viability: 0.209
NCI-H1975; first compound 20 µM
  relative viability: 0.312
NCI-H661; first compound 0.2 µM
  relative viability: 0.388
NCI-H661; first compound 0.6325 µM
  relative viability: 0.367
NCI-H661; first compound 2 µM
  relative viability: 0.357
NCI-H661; first compound 6.325 µM
  relative viability: 0.38
NCI-H661; first compound 20 µM
  relative viability: 0.345
H3255; first compound 0.2 µM
  relative viability: 0.429
H3255; first compound 0.6325 µM
  relative viability: 0.54
H3255; first compound 2 µM
  relative viability: 0.459
H3255; first compound 6.325 µM
  relative viability: 0.478
H3255; first compound 20 µM
  relative viability: 0.416
NCI-H23; first compound 0.2 µM
  relative viability: 0.563
NCI-H23; first compound 2 µM
  relative viability: 0.517
NCI-H23; first compound 6.325 µM
  relative viability: 0.467
NCI-H23; first compound 20 µM
  relative viability: 0.192
NCI-H2087; first compound 0.2 µM
  relative viability: 0.959
NCI-H2087; first compound 0.6325 µM
  relative viability: 0.588
NCI-H2087; first compound 2 µM
  relative viability: 0.969
NCI-H2087; first compound 6.325 µM
  relative viability: 0.584
NCI-H2087; first compound 20 µM
  relative viability: 0.315
PC-14; first compound 0.2 µM
  relative viability: 0.629
PC-14; first compound 0.6325 µM
  relative viability: 0.709
PC-14; first compound 2 µM
  relative viability: 0.628
PC-14; first compound 6.325 µM
  relative viability: 0.55
PC-14; first compound 20 µM
  relative viability: 0.488
NCI-H1437; first compound 0.2 µM
  relative viability: 0.482
NCI-H1437; first compound 0.6325 µM
  relative viability: 0.382
NCI-H1437; first compound 2 µM
  relative viability: 0.516
NCI-H1437; first compound 6.325 µM
  relative viability: 0.269
NCI-H1437; first compound 20 µM
  relative viability: 0.128
PC-3 [JPC-3]; first compound 0.2 µM
  relative viability: 0.759
PC-3 [JPC-3]; first compound 0.6325 µM
  relative viability: 0.763
PC-3 [JPC-3]; first compound 2 µM
  relative viability: 0.707
PC-3 [JPC-3]; first compound 6.325 µM
  relative viability: 0.619
PC-3 [JPC-3]; first compound 20 µM
  relative viability: 0.459
LCLC-103H; first compound 0.2 µM
  relative viability: 0.721
LCLC-103H; first compound 0.6325 µM
  relative viability: 0.574
LCLC-103H; first compound 2 µM
  relative viability: 0.608
LCLC-103H; first compound 6.325 µM
  relative viability: 0.631
LCLC-103H; first compound 20 µM
  relative viability: 0.59
ABC-1; first compound 0.2 µM
  relative viability: 0.547
ABC-1; first compound 0.6325 µM
  relative viability: 0.852
ABC-1; first compound 2 µM
  relative viability: 0.722
ABC-1; first compound 6.325 µM
  relative viability: 0.286
ABC-1; first compound 20 µM
  relative viability: 0.286
